Experiments:
[1] = tested on: Carrageenin-Induced Edema; experiment: Carrageenin-induced edema in the rat; type: in vivo, rat (Royal Hart, Wistar strain); conditions: oral gavage, 5 hours after drug, 4 hours after carrageenin, dose not given, * p = <.05 by t test
Description: (A) Carrageenin-induced edema in the rat
In determining the acute anti-inflammatory activity of the cis-2-[2(or 3)-thenoyl]-3-hydroxy-2-alkenenitriles of the present invention, Royal Hart, Wistar strain rats, ranging in weight from 80 to 90 grams were used. The rats were fasted overnight prior to dosing but had free access to water. The test compounds were administered in aqueous suspension, by gavage, in a volume of 1.7 ml. per 50 grams of rat [corresponds to hydration volume used by Winter, et al., Proc. Soc. […] The phlogistic agent used was carrageenin prepared as a sterile 1% suspension in 0.9% aqueous sodium chloride for routine testing. A volume of 0.05 ml. was injected through a 26 gauge needle into the plantar tissue of the right hind paw. Measurements were made 5 hours after drug administration (4 hours after carrageenin challenge). Volumes of both the normal and carrageenin inflammed feet were determined. The difference between the two measurements is considered to be the increased edema due to the carrageenin administration. Results are expressed as a C/T efficacy ratio (edema of control animals/edema of treated animals).

[2] = tested on: Adjuvant Induced Arthritis in Rats; experiment: Adjuvant-induced arthritis in the rat; type: in vivo, rat (Royal Hart, Wistar strain)
Description: (B) Adjuvant-induced arthritis in the rat […] Groups of three Royal Hart, Wistar strain rats weighing 200±10 g. each were injected intradermally in the right hind paw with Freund's adjuvant (dried human tubercle bacilli in a mineral oil vehicle) at a dose of 2 mg./kg. of body weight. The test compounds were administered orally in a 1.5% starch vehicle at various doses once daily on days 0 to 13 post challenge. Control rats were treated in a similar manner, but given only starch vehicle. On the 14th and 21st day post challenge the diameter of the injected paw was measured by micrometer caliper. The volume of inflamed paws were estimated from these measurements and the effects of each compound are expressed as percent inhibition of swelling as compared to controls. Table II records the results of these tests conducted with representative compounds of this invention and known anti-inflammatory agents. The active compounds of this invention suppress the progression of the arthritis and associated joint deterioration.

[3] = oral 50 mg./kg. daily days 0 to 13, * (where printed) p = <.05 by t test
[4] = oral 50 mg./kg. daily days 0 to 13, no asterisk
[5] = oral 25 mg./kg. daily days 0 to 13, * p = <.05 by t test

Row | Compound | C/T Ratio (edema of control animals/edema of treated animals) [1] | % Inhibition of Swelling, Day 14 [2, 3] | % Inhibition of Swelling, Day 21 [2, 4] | % Inhibition of Swelling, Day 14 [2, 5] | % Inhibition of Swelling, Day 21 [2, 5]
1 | C/C(O)=C(\C#N)C(=O)c1cccs1 [Cis-2-(2-thenoyl)-3-hydroxycrotononitrile] | 2.04 | 42% | 6% | – | –
2 | C/C(O)=C(\C#N)C(=O)c1ccsc1 [Cis-2-(3-thenoyl)-3-hydroxycrotononitrile] | 2.42 | 38% | 19% | – | –
3 | C/C(O)=C(\C#N)C(=O)c1ccc(Cl)s1 [Cis-2-(5-chloro-2-thenoyl)-3-hydroxycrotononitrile] | – | – | – | 49% | 31%

Reference: patent publication US4197310A, “Thiophenepropionitriles” (American Cyanamid Company, priority 1979, dated 1980)
